Here are results for two molecules from ChEMBL document CHEMBL4414573, “Competitive Binding Assay with an Umbelliferone-Based Fluorescent Rexinoid for Retinoid X Receptor Ligand Screening” (J Med Chem, 2019).

For this assay, the target named is T1, Retinoic acid receptor RXR-alpha (Homo sapiens, UniProt P19793).
T1 sequence (P19793 whole entry): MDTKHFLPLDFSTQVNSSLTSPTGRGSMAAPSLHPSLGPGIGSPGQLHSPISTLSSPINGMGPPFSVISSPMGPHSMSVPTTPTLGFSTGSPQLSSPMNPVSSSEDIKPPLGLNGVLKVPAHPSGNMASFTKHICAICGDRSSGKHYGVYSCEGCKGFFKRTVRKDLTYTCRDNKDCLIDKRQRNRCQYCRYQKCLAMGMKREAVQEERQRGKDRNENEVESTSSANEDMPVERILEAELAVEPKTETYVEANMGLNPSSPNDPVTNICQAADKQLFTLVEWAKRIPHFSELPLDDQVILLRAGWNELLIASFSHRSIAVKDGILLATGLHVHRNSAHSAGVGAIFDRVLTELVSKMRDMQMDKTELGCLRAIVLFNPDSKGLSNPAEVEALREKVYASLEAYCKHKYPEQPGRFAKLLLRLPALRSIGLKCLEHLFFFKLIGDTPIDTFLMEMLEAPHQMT
Kind of assay: Displacement of CU-6PMN from human RXRalpha LBD incubated for 2 hrs by fluorescence based assay.

As for `CC/C=C\C/C=C\C/C=C\C/C=C\C/C=C\CCCC(=O)O` [ICOSAPENT], where the note is “read-out: Ki”, the Ki (in general, the equilibrium dissociation constant of an inhibitor or competing ligand from its target) worked out at 7.63 µM.

On to `CCCCCCCCCCCCCCCC(=O)O` [PALMITIC ACID], for which the Ki entry is “Not Active”.
